Laboratory results as given in article PMC8745330, “Aromatic Sulfonamides including a Sulfonic Acid Tail: New Membrane Impermeant Carbonic Anhydrase Inhibitors for Targeting Selectively the Cancer-Associated Isoforms” (International Journal of Molecular Sciences, 2021).
pKi: −log10 of the molar value. Where “and” joins values, the source holds several entries; their conditions need not be identical. Equal values may be shown once.

Assays:
Caco-2 cells = experiment: Caco-2 cell viability by MTS; assay type: cell-based; conditions: 50 µM
Experimental: (§1) The colorectal adenocarcinoma cell line Caco-2 was purchased from American Tissue Type Culture Collection (Manassas, VA, USA) and cultured in Dulbecco’s modified Eagle’s medium (DMEM) (Thermo Fisher Scientific, Rodano, Milan, Italy) with 20% fetal bovine serum (FBS) (Thermo Fisher Scientific, Rodano, Milan, Italy) and 100 U/mL penicillin–streptomycin (Thermo Fisher Scientific, Rodano, Milan, Italy) in 5% CO2 at 37 °C. Cell viability was determined by MTS after 2 h of exposure to the aliphatic sulfonate CAIs at 50 µM concentration, as previously described.

hCA II = target: T1, hCA II (Homo sapiens, UniProt P00918); experiment: stopped flow CO2 hydrase assay, CA II; assay type: biochemical; conditions: mean from 3 different assays, errors ±5–10%
T1 construct: made in house
Experimental: (§2) An Applied Photophysics stopped-flow instrument was used for assaying the CA catalyzed CO2 hydration activity. Phenol red (at a concentration of 0.2 mM) was used as an indicator, working at the absorbance maximum of 557 nm, with 20 mM HEPES (pH 7.5) as buffer, and 20 mM Na2SO4 (for maintaining constant the ionic strength), following the initial rates of the CA-catalyzed CO2 hydration reaction for a period of 10–100 s. The CO2 concentrations ranged from 1.7 to 17 mM for the determination of the kinetic parameters and inhibition constants. For each inhibitor, at least six traces of the initial 5–10% of the reaction were used for determining the initial velocity. The uncatalyzed rates were determined in the same manner and subtracted from the total observed rates. Stock solutions of inhibitor (0.1 mM) were prepared in distilled–deionized water, and dilutions up to 0.01 nM were done thereafter with the assay buffer. Inhibitor and enzyme solutions were preincubated together for 45 min at room temperature prior to assay in order to allow for the formation of the E–I complex. The inhibition constants were obtained by non-linear least-squares methods using PRISM 3 and the Cheng–Prusoff equation, as reported earlier, representing the mean from at least three different determinations. […] All CA isoforms were recombinant ones obtained in-house, as reported earlier.

hCA I = target: T2, hCA I (Homo sapiens, UniProt P00915); experiment: stopped flow CO2 hydrase assay, CA I; assay type: biochemical; conditions: mean from 3 different assays, errors ±5–10%
T2 construct: made in house
T2 sequence (P00915 whole entry): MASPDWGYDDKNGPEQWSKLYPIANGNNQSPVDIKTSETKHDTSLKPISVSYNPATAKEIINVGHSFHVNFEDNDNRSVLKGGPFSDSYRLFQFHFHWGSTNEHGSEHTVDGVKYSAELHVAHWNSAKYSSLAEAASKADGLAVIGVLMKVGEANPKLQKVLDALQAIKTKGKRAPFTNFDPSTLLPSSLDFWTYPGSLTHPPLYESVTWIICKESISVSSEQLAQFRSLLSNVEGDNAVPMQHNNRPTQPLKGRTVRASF
Experimental: as §2

hCA IX = target: T3, hCA IX (Homo sapiens, UniProt Q16790); experiment: stopped flow CO2 hydrase assay, CA IX; assay type: biochemical; conditions: for Selectivity index (SI) CA I/CA IX / Selectivity index (SI) CA II/CA IX: ratio between KI values; for pKi: stopped flow CO2 hydrase assay, mean from 3 different assays, errors ±5–10%
T3 construct: made in house
Experimental: as §2

hCA XII = target: T4, hCA XII (Homo sapiens, UniProt O43570); experiment: stopped flow CO2 hydrase assay, CA XII; assay type: biochemical; conditions: for Selectivity index (SI) CA I/CA XII / Selectivity index (SI) CA II/CA XII: ratio between KI values; for pKi: stopped flow CO2 hydrase assay, mean from 3 different assays, errors ±5–10%
T4 construct: made in house
T4 sequence (O43570 25-354): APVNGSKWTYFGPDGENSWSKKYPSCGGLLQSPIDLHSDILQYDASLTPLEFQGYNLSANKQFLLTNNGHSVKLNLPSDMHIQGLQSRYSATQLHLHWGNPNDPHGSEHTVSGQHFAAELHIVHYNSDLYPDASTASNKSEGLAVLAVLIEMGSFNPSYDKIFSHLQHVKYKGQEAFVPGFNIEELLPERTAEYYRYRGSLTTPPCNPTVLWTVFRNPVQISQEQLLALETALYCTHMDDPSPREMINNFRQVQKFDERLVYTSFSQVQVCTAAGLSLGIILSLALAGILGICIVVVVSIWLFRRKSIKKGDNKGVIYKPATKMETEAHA
Experimental: as §2

hCA IV = target: T5, hCA IV (Homo sapiens, UniProt P22748); experiment: stopped flow CO2 hydrase assay, CA IV; assay type: biochemical; conditions: mean from 3 different assays, errors ±5–10%
T5 construct: made in house
T5 sequence (P22748 19-312): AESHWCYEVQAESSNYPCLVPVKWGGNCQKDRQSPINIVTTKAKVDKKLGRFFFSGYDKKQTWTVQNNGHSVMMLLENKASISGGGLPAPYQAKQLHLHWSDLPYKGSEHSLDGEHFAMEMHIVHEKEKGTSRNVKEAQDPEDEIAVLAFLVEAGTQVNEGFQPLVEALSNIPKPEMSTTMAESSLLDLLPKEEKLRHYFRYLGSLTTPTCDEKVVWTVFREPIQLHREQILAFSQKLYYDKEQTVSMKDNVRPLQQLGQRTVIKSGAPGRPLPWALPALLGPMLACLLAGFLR
Experimental: as §2

[1] = Caco-2 cell viability by MTS; assay type: cell-based; conditions: human; Caco-2 cells, 50 μM, 2 h of exposure, MTS; data not shown
Experimental: as §1

Molecule | cell viability (Caco-2 cells) [%] | pKi (hCA II) | pKi (hCA I) | Selectivity index (SI) CA I/CA IX (hCA IX) | Selectivity index (SI) CA II/CA IX (hCA IX) | pKi (hCA IX) | Selectivity index (SI) CA I/CA XII (hCA XII) | Selectivity index (SI) CA II/CA XII (hCA XII) | pKi (hCA XII) | pKi (hCA IV) | viability at 2 h, 50 µM [1] [%] | melting point [°C]
Sodium 3-(4-(4-sulfamoylphenyl)-1H-1,2,3-triazol-1-yl)butane-1-sulfonate [Compound 41] | > 95 | 7.73 | 6.83 | 17 | 2.2 | 8.07 | 3.4 | 0.44 | 7.37 | 6.39 |  | 
Sodium 3-(4-(((4-sulfamoylphenyl)amino)methyl)-1H-1,2,3-triazol-1-yl)butane-1-sulfonate [Compound 43] | > 95 | 6.44 | 5.54 | 36 | 4.5 | 7.10 | 855 | 107 | 8.47 | 6.05 |  | 
NS(=O)(=O)c1ccc(NC(=O)NCc2cn(CCCS(=O)(=O)[O-])nn2)cc1.[Na+] [Compound 34, Sodium 3-(4-((3-(4-sulfamoylphenyl)ureido)methyl)-1H-1,2,3-triazol-1-yl)propane-1-sulfonate] |  | 8.13 | 6.21 | 9.1 | 0.11 | 7.17 | 9.2 | 0.11 | 7.17 | 7.20 | > 95 | > 300
NS(=O)(=O)c1ccc(C(=O)NCc2cn(CCCS(=O)(=O)[O-])nn2)cc1.[Na+] [Compound 33, Sodium 3-(4-((4-sulfamoylbenzamido)methyl)-1H-1,2,3-triazol-1-yl)propane-1-sulfonate] |  | 8.37 | 6.34 | 143 | 1.3 | 8.49 | 48 and 48.2 | 0.45 | 8.02 | 7.25 | > 95 | > 300
